PubChem BioAssay AID330 (DTP/NCI, 2004)
“And” between values parts separate entries of the source, which are not always exact repeats. Equal values may be shown once. Inconclusive results and toxic doses are left out.

Test system: P388 leukemia ip, CD2F1 mice, survival T/C
Assay: NCI In Vivo Anticancer Drug Screen. Data for tumor model P388 Leukemia (intraperitoneal) in CD2F1 (CDF1) mice
Details: endpoint: median survival time, higher = longer survival
How it was run: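 Mice carrying the transplanted tumor received test compound or vehicle. Survival was recorded in each group, and the value is the treated-group measurement divided by that of the vehicle-treated control group.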

[1] = dose: 50.0 mg/kg/injection, schedule: Q01DX009 (ip), vehicle: saline with Tween-80
[2] = dose: 50.0 mg/kg/injection, schedule: Q04DX003 (ip), vehicle: saline with Tween-80
[3] = dose: 100.0 mg/kg/injection, schedule: Q01DX009 (ip), vehicle: saline with Tween-80
[4] = dose: 100.0 mg/kg/injection, schedule: Q04DX003 (ip), vehicle: saline with Tween-80
[5] = dose: 25.0 mg/kg/injection, schedule: Q01DX009 (ip), vehicle: other
[6] = dose: 50.0 mg/kg/injection, schedule: Q01DX009 (ip), vehicle: other
[7] = dose: 100.0 mg/kg/injection, schedule: Q01DX009 (ip), vehicle: other
[8] = dose: 200.0 mg/kg/injection, schedule: Q01DX009 (ip), vehicle: saline with Tween-80
[9] = dose: 12.5 mg/kg/injection, schedule: Q04DX002 (ip), vehicle: saline with Tween-80
[10] = dose: 50.0 mg/kg/injection, schedule: Q01DX005 (ip), vehicle: saline with Tween-80
[11] = dose: 100.0 mg/kg/injection, schedule: Q01DX005 (ip), vehicle: saline with Tween-80
[12] = dose: 200.0 mg/kg/injection, schedule: Q01DX005 (ip), vehicle: saline with Tween-80
[13] = dose: 50.0 mg/kg/injection, schedule: Q01DX005 (ip), vehicle: Klucel (hydroxypropylcellulose) (HPC)
[14] = dose: 100.0 mg/kg/injection, schedule: Q01DX005 (ip), vehicle: Klucel (hydroxypropylcellulose) (HPC)
[15] = dose: 200.0 mg/kg/injection, schedule: Q01DX005 (ip), vehicle: Klucel (hydroxypropylcellulose) (HPC)

CC1(C)OC2C(COC(=O)Oc3ccccc3)OC(n3cnc4c(=S)nc[nH]c43)C2O1 (stereo not drawn) was tested, and the T/C (dose: 25.0 mg/kg/injection, schedule: Q01DX009 (ip), vehicle: saline with Tween-80) was 95 % of control, the T/C (dose: 25.0 mg/kg/injection, schedule: Q04DX003 (ip), vehicle: saline with Tween-80) was 105 % of control and the T/C [1] was 95 % of control. The T/C [2] was 110 % of control, the T/C [3] was 95 % of control and the T/C [4] was 100 % of control.

For COC(=O)c1ccc(Cl)cc1O, the T/C (dose: 12.5 mg/kg/injection, schedule: Q01DX009 (ip), vehicle: distilled water + Tween-80) was 92 % of control, the T/C (dose: 25.0 mg/kg/injection, schedule: Q01DX009 (ip), vehicle: distilled water + Tween-80) was 100 % of control and the T/C (dose: 50.0 mg/kg/injection, schedule: Q01DX009 (ip), vehicle: distilled water + Tween-80) was 102 % of control. For the same compound, the T/C (dose: 100.0 mg/kg/injection, schedule: Q01DX009 (ip), vehicle: distilled water + Tween-80) was 102 % of control and the T/C (dose: 200.0 mg/kg/injection, schedule: Q01DX009 (ip), vehicle: distilled water + Tween-80) was 92 % of control.

With CN=C(NC)c1ccc(NC(=O)c2ccc(C(=O)Nc3ccc(C(=NC)NC)cc3)c(Cl)c2)cc1 the T/C (dose: 18.0 mg/kg/injection, schedule: Q01DX010 (ip), vehicle: saline) was 218 % of control, the T/C (dose: 27.0 mg/kg/injection, schedule: Q01DX010 (ip), vehicle: saline) was 254 % of control and the T/C (dose: 40.0 mg/kg/injection, schedule: Q01DX010 (ip), vehicle: saline) was 209 % of control. The T/C (dose: 60.0 mg/kg/injection, schedule: Q01DX010 (ip), vehicle: saline) was 154 % of control.

For COc1c2c(c(OC)c3c1C(=O)c1ccccc1C3O)CC=CC2 (stereo not drawn), the T/C [5] was 94 % of control, the T/C [6] was 91 % of control and the T/C [7] was 91 % of control. The T/C (dose: 200.0 mg/kg/injection, schedule: Q01DX009 (ip), vehicle: other) was 95 % of control and the T/C (dose: 400.0 mg/kg/injection, schedule: Q01DX009 (ip), vehicle: other) was 100 % of control.

With Cc1cc(Nc2ccc(N(C)C)cc2)c2ccc(N(C)C)cc2n1 the T/C (dose: 100.0 mg/kg/injection, schedule: Q04DX002 (ip), vehicle: acid diluted with saline) was 95 % of control, the T/C (dose: 200.0 mg/kg/injection, schedule: Q04DX002 (ip), vehicle: acid diluted with saline) was 103 % of control and the T/C (dose: 400.0 mg/kg/injection, schedule: Q04DX002 (ip), vehicle: acid diluted with saline) was 96 % of control.

With COc1nc2ccccc2nc1OC the T/C [3] was 97 % of control, the T/C [8] was 100 % of control and the T/C (dose: 400.0 mg/kg/injection, schedule: Q01DX009 (ip), vehicle: saline with Tween-80) was 97 % of control.

O=S(=O)(O)O.[NH2-].[NH2-].[Pt+2] was tested, and the T/C (dose: 1.56 mg/kg/injection, schedule: Q04DX002 (ip), vehicle: saline with Tween-80) was 112 % of control, the T/C (dose: 6.25 mg/kg/injection, schedule: Q04DX002 (ip), vehicle: saline with Tween-80) was 162 % of control and the T/C [9] was 156 % of control.

In the case of C=C1C(=O)OC2CC1CCC1(C)OC1CCC(C)=CCCC2(C)O (stereo not drawn), the T/C (dose: 7.5 mg/kg/injection, schedule: Q01DX009 (ip), vehicle: Klucel (hydroxypropylcellulose) (HPC)) is reported as 100 % of control and 101 % of control, the T/C (dose: 15.0 mg/kg/injection, schedule: Q01DX009 (ip), vehicle: Klucel (hydroxypropylcellulose) (HPC)) is reported as 107 % of control and 119 % of control and the T/C (dose: 30.0 mg/kg/injection, schedule: Q01DX009 (ip), vehicle: Klucel (hydroxypropylcellulose) (HPC)) is reported as 107 % of control and 108 % of control. For the same compound, the T/C (dose: 60.0 mg/kg/injection, schedule: Q01DX009 (ip), vehicle: Klucel (hydroxypropylcellulose) (HPC)) was 108 % of control.

CN(C)c1ccc(/C=C(/C#N)c2ccc(Cl)cc2)cc1 was tested, and the T/C [2] was 97 % of control, the T/C [4] was 92 % of control and the T/C (dose: 200.0 mg/kg/injection, schedule: Q04DX003 (ip), vehicle: saline with Tween-80) was 92 % of control. The T/C (dose: 400.0 mg/kg/injection, schedule: Q04DX003 (ip), vehicle: saline with Tween-80) was 92 % of control.

With O=C1/C(=C/c2cccnc2)SC(=S)N1Cc1ccco1 the T/C [1] was 97 % of control, the T/C [3] was 94 % of control and the T/C [8] was 90 % of control.

With NNC(=O)c1cc2c3ccccc3ncc2c2ccccc12 the T/C (dose: 100.0 mg/kg/injection, schedule: Q01DX001 (ip), vehicle: saline with Tween-80) was 86 % of control, the T/C (dose: 200.0 mg/kg/injection, schedule: Q01DX001 (ip), vehicle: saline with Tween-80) was 95 % of control and the T/C (dose: 400.0 mg/kg/injection, schedule: Q01DX001 (ip), vehicle: saline with Tween-80) was 113 % of control.

With COCN(C)N=Nc1ccc(C#N)cc1 the T/C (dose: 60.0 mg/kg/injection, schedule: Q01DX005 (ip), vehicle: Klucel (hydroxypropylcellulose) (HPC)) was 100 % of control, the T/C (dose: 120.0 mg/kg/injection, schedule: Q01DX005 (ip), vehicle: Klucel (hydroxypropylcellulose) (HPC)) was 117 % of control and the T/C (dose: 240.0 mg/kg/injection, schedule: Q01DX005 (ip), vehicle: Klucel (hydroxypropylcellulose) (HPC)) was 117 % of control.

With COc1ccccc1Nc1nc(-c2ccc(O)c(O)c2)cs1 the T/C [10] was 97 % of control, the T/C [11] was 89 % of control and the T/C [12] was 103 % of control.

With c1cc(-c2nn[nH]n2)ccc1NNc1ccc(-c2nn[nH]n2)cc1 the T/C (dose: 50.0 mg/kg/injection, schedule: Q01DX001 (ip), vehicle: Klucel (hydroxypropylcellulose) (HPC)) was 101 % of control, the T/C (dose: 100.0 mg/kg/injection, schedule: Q01DX001 (ip), vehicle: Klucel (hydroxypropylcellulose) (HPC)) was 105 % of control and the T/C (dose: 200.0 mg/kg/injection, schedule: Q01DX001 (ip), vehicle: Klucel (hydroxypropylcellulose) (HPC)) was 98 % of control.

In the case of CCOC(=O)Cc1c(C)noc1OC, the T/C (dose: 25.0 mg/kg/injection, schedule: Q01DX005 (ip), vehicle: saline with Tween-80) is reported as 106 % of control, the T/C [10] is reported as 97 % of control and the T/C [11] is reported as 99 % of control. For the same compound, the T/C [12] was 97 % of control.

O=C(CCCc1ccc(N2C(=O)C=CC2=O)cc1)ON1C(=O)CCC1=O was tested, and the T/C [9] was 105 % of control and the T/C (dose: 25.0 mg/kg/injection, schedule: Q04DX002 (ip), vehicle: saline with Tween-80) was 104 % of control.

In the case of CC(=O)Nc1cccc2nc(-c3ccccn3)n(CCc3ccccn3)c12, the T/C (dose: 25.0 mg/kg/injection, schedule: Q01DX005 (ip), vehicle: Klucel (hydroxypropylcellulose) (HPC)) is reported as 105 % of control, the T/C [13] is reported as 102 % of control and the T/C [14] is reported as 103 % of control. The T/C [15] was 109 % of control.

With CSC(=S)n1nc(-c2cccs2)c(N=Nc2ccc([N+](=O)[O-])cc2)c1C(F)(F)F the T/C (dose: 60.0 mg/kg/injection, schedule: Q01DX005 (ip), vehicle: saline with Tween-80) was 94 % of control, the T/C (dose: 120.0 mg/kg/injection, schedule: Q01DX005 (ip), vehicle: saline with Tween-80) was 88 % of control and the T/C (dose: 240.0 mg/kg/injection, schedule: Q01DX005 (ip), vehicle: saline with Tween-80) was 97 % of control.

CCOP(=O)(OCC)OC(C)CC1CO1 (stereo not drawn) was tested, and the T/C (dose: 100.0 mg/kg/injection, schedule: Q04DX002 (ip), vehicle: saline) was 100 % of control, the T/C (dose: 200.0 mg/kg/injection, schedule: Q04DX002 (ip), vehicle: saline) was 98 % of control and the T/C (dose: 400.0 mg/kg/injection, schedule: Q04DX002 (ip), vehicle: saline) was 103 % of control.

With COCCO[Si](OCCOC)(OCCOC)OCCOC the T/C (dose: 50.0 mg/kg/injection, schedule: Q01DX009 (ip), vehicle: Klucel (hydroxypropylcellulose) (HPC)) was 99 % of control and the T/C (dose: 100.0 mg/kg/injection, schedule: Q01DX009 (ip), vehicle: Klucel (hydroxypropylcellulose) (HPC)) was 87 % of control.

With COC(=O)C1CCCN1C(=O)c1ccccc1 (stereo not drawn) the T/C [10] was 114 % of control, the T/C [11] was 93 % of control and the T/C [12] was 100 % of control.

In the case of CC=O, the T/C (dose: 0.5 % in 0.5 ml injection vol, schedule: Q01DX009 (ip), vehicle: water) is reported as 100 % of control and 103 % of control and 109 % of control, the T/C (dose: 1.0 % in 0.5 ml injection vol, schedule: Q01DX009 (ip), vehicle: water) is reported as 104 % of control and 112 % of control and the T/C (dose: 2.0 % in 0.5 ml injection vol, schedule: Q01DX009 (ip), vehicle: water) is reported as 117 % of control.

With COc1cc2c(cc1OC)[C@H](C(=O)O)C(c1ccc3c(c1)OCO3)N(C)C2=O (stereo partly drawn) the T/C [13] was 95 % of control, the T/C [14] was 103 % of control and the T/C [15] was 88 % of control.

For CC(=O)N/N=C/c1ccccc1[N+](=O)[O-], the T/C (dose: 12.5 mg/kg/injection, schedule: Q01DX009 (ip), vehicle: other) was 97 % of control, the T/C [5] was 96 % of control and the T/C [6] was 98 % of control. For the same compound, the T/C [7] was 107 % of control.
